Measured values taken from ChEMBL document CHEMBL1201862, “PubChem BioAssay data set” (2004).
Active and inactive are the calls of the source.

Tests used:
[1] = target: T1, Endoribonuclease toxin MazF (Escherichia coli K-12, UniProt P0AE70); assay: fluorescent RNA oligo signal without MazF, dose response, counter-screen for MazEF activator project, biochemical, fluorescence, single-stranded RNase substrate (AID 588502); assay type: functional
T1 sequence (P0AE70 whole entry): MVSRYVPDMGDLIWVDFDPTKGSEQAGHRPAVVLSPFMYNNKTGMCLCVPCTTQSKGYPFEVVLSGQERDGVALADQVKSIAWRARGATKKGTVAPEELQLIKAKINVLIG

[2] = target: T1, Endoribonuclease toxin MazF; assay: MazF toxin RNase activators, dose response, biochemical, fluorescence, single-stranded RNA substrate, uHTS hits (AID 588481); assay type: functional
[3] = target: T2, Zinc finger protein mex-5 (Caenorhabditis elegans, UniProt Q9XUB2); assay: MEX-5/TCR-2 RNA interaction inhibitors, dose response, biochemical, C. elegans, fluorescence polarization (AID 1960)
T2 sequence (Q9XUB2 whole entry): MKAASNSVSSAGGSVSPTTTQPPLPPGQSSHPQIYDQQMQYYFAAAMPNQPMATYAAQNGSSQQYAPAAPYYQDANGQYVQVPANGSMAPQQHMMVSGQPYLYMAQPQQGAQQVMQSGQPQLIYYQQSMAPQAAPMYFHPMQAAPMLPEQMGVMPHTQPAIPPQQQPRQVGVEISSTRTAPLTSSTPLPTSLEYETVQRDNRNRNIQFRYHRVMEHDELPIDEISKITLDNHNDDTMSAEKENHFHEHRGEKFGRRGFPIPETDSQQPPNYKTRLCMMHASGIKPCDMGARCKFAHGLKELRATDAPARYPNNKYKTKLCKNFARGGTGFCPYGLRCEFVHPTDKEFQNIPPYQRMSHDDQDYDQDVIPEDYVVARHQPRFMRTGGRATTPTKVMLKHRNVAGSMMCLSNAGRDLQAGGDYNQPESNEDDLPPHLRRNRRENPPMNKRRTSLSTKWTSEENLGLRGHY

[4] = target: T3, RNA-binding protein pos-1 (Caenorhabditis elegans, UniProt G5EF15); assay: inhibitors of POS-1/mex-3 RNA binding, dose response, biochemical, fluorescence polarization (AID 1964);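 further: purified POS-1 fused to maltose binding protein made in E. coli; potency of compounds blocking POS-1 binding to fluorescent RNA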
T3 sequence (G5EF15 whole entry): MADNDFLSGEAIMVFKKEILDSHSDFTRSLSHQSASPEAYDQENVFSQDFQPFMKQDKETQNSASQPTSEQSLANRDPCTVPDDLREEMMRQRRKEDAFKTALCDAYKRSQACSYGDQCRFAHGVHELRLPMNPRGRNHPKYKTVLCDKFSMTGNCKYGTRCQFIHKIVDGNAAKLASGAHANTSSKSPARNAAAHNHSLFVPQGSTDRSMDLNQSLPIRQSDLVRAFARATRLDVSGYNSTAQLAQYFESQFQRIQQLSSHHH

[5] = tested on: HEK293; assay: inhibitors of LMP1-driven NF-kB reporter, dose response, cell-based, HEK293, luciferase, cherry-pick (AID 588343); assay type: functional; settings: Homo sapiens
[6] = HepG2 cell cytotoxicity, dose response, cytotoxicity control, plate reader, cherry-pick, antagonist series (AID 743416); assay type: functional, cell-based
[7] = MC4R antagonists, dose response, counter-screen for LGR2 antagonist project, cell-based, plate reader, cherry pick (AID 743444); assay type: functional;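 further: transfected HEK 293 cells stimulated with alpha-MSH peptide; potency of inhibitors of the alpha-MSH evoked signal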
[8] = LGR2 antagonists, dose response, cell-based, HEK293, CRE-luciferase reporter, cherry pick, set 2 (AID 743343); assay type: functional;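 further: transfected cells were stimulated with diluted bursicon conditioned medium after compound addition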
[9] = A549 cell cytotoxicity, dose response, cytotoxicity control, plate reader, cherry-pick, antagonist series (AID 743412); assay type: functional, cell-based
[10] = target: T4, Replicative DNA helicase DnaB (Mycobacterium tuberculosis, UniProt P9WMR3); assay: DnaB intein splicing inhibitors, dose response, biochemical, cell-free fluorescence (AID 449749); assay type: functional
T4 sequence (P9WMR3 whole entry): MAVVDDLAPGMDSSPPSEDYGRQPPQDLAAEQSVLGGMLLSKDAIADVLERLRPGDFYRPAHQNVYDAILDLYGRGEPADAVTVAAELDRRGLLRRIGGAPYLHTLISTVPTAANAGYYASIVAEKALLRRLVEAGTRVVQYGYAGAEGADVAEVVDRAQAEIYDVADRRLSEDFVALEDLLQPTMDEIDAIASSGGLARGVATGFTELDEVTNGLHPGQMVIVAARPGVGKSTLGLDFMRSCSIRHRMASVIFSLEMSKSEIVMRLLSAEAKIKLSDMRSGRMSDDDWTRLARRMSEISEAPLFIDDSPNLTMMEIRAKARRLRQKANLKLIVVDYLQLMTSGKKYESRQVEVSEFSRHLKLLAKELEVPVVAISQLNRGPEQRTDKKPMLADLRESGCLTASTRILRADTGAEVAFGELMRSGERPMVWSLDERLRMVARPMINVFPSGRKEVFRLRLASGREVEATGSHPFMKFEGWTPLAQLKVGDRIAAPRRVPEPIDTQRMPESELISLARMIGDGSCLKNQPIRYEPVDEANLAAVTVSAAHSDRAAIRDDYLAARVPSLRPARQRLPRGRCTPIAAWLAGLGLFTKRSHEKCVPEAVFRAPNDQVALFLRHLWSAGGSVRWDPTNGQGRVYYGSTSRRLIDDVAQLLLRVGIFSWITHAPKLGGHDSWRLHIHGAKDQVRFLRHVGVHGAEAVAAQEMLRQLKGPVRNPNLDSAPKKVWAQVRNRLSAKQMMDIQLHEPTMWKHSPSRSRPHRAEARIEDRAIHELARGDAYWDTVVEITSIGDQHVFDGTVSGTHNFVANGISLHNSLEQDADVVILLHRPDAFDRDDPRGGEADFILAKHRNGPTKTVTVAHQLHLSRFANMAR

[11] = target: T5, Protein RecA (Mycobacterium tuberculosis, UniProt P9WHJ3); assay: Fluorescence Cell-Free Homogeneous Dose Retest to Identify Inhibitors of RecA-Intein Splicing Activity. [Related pubchem assays (depositor defined):AID2097, AID2223, AID489010, AID492950]; assay type: functional
T5 sequence (P9WHJ3 whole entry): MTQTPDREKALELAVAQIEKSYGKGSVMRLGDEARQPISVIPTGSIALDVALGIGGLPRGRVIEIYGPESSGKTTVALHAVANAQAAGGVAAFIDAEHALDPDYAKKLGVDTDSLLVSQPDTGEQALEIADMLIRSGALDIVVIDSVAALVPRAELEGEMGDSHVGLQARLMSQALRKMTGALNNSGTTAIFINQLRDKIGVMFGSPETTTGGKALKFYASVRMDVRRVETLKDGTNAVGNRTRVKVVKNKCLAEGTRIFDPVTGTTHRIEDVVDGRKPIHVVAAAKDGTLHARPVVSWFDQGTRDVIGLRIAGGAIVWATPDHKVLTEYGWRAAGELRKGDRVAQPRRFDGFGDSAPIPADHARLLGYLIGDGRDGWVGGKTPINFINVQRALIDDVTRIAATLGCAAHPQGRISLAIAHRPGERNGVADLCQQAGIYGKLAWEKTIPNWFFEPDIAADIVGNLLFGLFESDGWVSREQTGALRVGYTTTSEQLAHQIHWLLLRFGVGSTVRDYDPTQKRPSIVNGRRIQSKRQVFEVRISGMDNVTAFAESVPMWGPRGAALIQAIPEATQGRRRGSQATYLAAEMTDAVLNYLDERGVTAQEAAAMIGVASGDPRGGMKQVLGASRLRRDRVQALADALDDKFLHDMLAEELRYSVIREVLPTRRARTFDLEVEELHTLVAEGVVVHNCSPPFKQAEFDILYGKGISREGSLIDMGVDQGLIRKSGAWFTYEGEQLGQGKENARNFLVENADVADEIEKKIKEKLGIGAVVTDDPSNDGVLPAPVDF

Compound | EC50 [1] | EC50 [2] | also measured
Cc1nc(SCC(=O)Nc2cc(C)on2)c2c3c(sc2n1)CCCC3 | > 99 µM (inactive) | > 99 µM (inactive) | –
Cc1ccc(-c2cc(-c3ccccc3)nc(N)c2C#N)o1 | 44.6 µM (inactive) | > 99 µM (inactive) | –
CC1CC(=O)C2=C(C1)OC(N)=C(C#N)C2c1coc2ccccc2c1=O (configuration not stated) | > 99 µM (inactive) | > 99 µM (inactive) | –
COc1ccc2c(c1)S/C(=C\C(=O)c1ccncc1)N2C | > 99 µM (inactive) | > 99 µM (inactive) | EC50 [3]: > 300 µM (not active); EC50 [4]: > 300 µM (not active)
O=C(c1ccc(Cl)cc1)N1CCN(CCOc2ccccc2)CC1 | – | – | AC50 [5]: > 350 µM (inactive)
CCCNC(=O)Nc1ccc2c(c1)C(=O)N(C)C[C@H](OC)[C@H](C)CN(Cc1ccc(-c3ccccn3)cc1)[C@@H](C)CO2 | – | – | AC50 [6]: 44 µM (active); AC50 [7]: 55.8 µM (active); AC50 [8]: 50.8 µM (active); AC50 [9]: 26.4 µM (active)
COc1cc(/C=C2/SC(=S)N(Cc3ccccc3)C2=O)ccc1OCC(=O)O | – | – | AC50 [5]: 45.2 µM (active); AC50 [10]: 4.22 µM (active); EC50 [11]: 6.85 µM (active)
CSc1nnc(N2C(=O)C(O)=C(C(=O)c3ccc(C)o3)C2c2ccc(C)cc2)s1 (configuration not stated) | > 99 µM (inactive) | 9.87 µM (active) | –
NNS(=O)(=O)c1ccc(Sc2ccccn2)c([N+](=O)[O-])c1 | > 99 µM (inactive) | 52.6 µM (inactive) | –
